Patent US9492377B2, “Effervescent composition in solid form for use in vaginal applications for the treatment of vaginal infections” (PROBIOTICAL S.P.A., priority 2011, dated 2016)

Test system: microorganisms

With O=C(O)CCCCC(=O)O [Adipic acid] the “portion of the total mortality observed accounted for by the toxicity” value was “about 60%” and the “toxicity (mortality) on its own” value (pH 4.24) was 45.8%.
